Results published in patent US6362171B1, “Aminoaklanoyl-linked conjugates of 2′,5′-oligoadenylate and antiviral uses thereof” (priority 1997, dated 2002).
“And” between values parts separate entries of the source, which are not always exact repeats. Equal entries are not always repeated.

Columns and labels:
[1] = biological target: T1, HIV-1 reverse transcriptase (HIV-1 RT) (Human immunodeficiency virus type 1 group M subtype B, UniProt P04585); experiment: Inhibition of HIV-1 reverse-transcriptase activity in culture supernatant of infected Sup T1 cells; type: cell-based; conditions: for Inhibition of HIV-1 RT activity: 300 μM compound, Sup T1 cells treated 6 hours, supernatant at 96 hours post-infection, mean of duplicate
T1 construct: culture supernatant was removed and HIV-1 RT activity was assayed in triplicate; endogenous in cells; host or cells: Sup T1 cells infected with HIV-1; virion-associated enzyme in the culture supernatant

HIV-1 strain IIIB = experiment: Infected centers assay: inhibition of HIV-1 induced syncytia formation (HIV-1 replication); type: cell-based; conditions: 300 μM compound; PBL treated 2 hours, infected with HIV-1 IIIB, co-cultured with Sup T1 cells, read at 72 hours; control 144 syncytia/10^4 cells; mean of triplicate
Method: The infected centers assay as described by Henderson et al., Virology 1991, 182, 186, was used to measure the ability of the conjugated trimer core compounds of the invention to inhibit HIV-1 induced syncytia formation, an indicator of HIV-1 replication in T cells. […] The infected PBL were maintained in RPMI-1640 medium supplemented with 10% (v/v) heat-inactivated fetal calf serum at 37° C. in a humidified 5% CO2 in air atmosphere. After 48 hours, the cells were washed twice in Hank's balanced salt solution, serially diluted and seeded into multiple wells of a 96-well microtiter plate. Immediately, 2×10^5 exponentially growing Sup T1 cells were added to each well; Sup T1 cells readily form a syncytium with a cell which is productively infected with HIV-1. The wells were examined daily for the presence of syncytia, using a tissue culture microscope. The first signs of syncytia formation can be seen in 12 hours, with some complete syncytia developing by 24 hours. Final results were read at 72 hours. Each syncytium was counted as a single infected cell. The number of syncytia per seeded cell was determined and expressed as an infected center per infected cell. The number of syncytia per […] was 144 for the control Sup T1 cells.

[2] = biological target: recombinant human GST-RNase L (Homo sapiens, UniProt Q05823); conditions: 10 μM compound; mean of duplicate
RNase L = biological target: T2, RNase L (Homo sapiens, UniProt Q05823); conditions: literature ref [10]; cited from earlier work
T2 sequence (Q05823 1-741): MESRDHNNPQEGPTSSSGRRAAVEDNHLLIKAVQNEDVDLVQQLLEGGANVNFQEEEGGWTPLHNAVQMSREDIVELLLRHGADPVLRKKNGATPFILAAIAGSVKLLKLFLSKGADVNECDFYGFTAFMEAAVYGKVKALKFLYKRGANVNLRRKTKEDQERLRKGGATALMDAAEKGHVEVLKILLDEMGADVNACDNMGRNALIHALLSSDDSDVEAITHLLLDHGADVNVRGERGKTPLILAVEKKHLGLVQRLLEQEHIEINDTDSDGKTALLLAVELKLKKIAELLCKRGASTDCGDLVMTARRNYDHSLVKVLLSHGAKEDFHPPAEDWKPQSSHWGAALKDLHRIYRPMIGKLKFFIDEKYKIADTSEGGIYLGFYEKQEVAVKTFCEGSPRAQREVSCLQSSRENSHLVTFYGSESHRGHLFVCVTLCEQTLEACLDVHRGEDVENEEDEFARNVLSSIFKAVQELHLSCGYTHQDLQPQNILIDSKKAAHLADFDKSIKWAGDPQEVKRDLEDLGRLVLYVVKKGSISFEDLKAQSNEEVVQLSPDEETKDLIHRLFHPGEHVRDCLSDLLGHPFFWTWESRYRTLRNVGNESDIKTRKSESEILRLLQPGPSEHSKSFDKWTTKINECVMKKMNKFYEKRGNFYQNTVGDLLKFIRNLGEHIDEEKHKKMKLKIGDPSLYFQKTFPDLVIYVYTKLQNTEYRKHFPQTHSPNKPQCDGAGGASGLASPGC

HIV-1 = conditions: literature ref [11]; cited from earlier work

Compound	Inhibition of HIV-1 RT activity [1] [%]	Inhibition of syncytia formation (fold reduction in infection) (HIV-1 strain IIIB)	inhibition at 300 µM ([1]; SUP-T1, read-out: Inhibition of HIV-1 RT activity) [%]	Activation of RNase L (percent hydrolysis of poly(U)-3′-[32P]pCp) [2] [%]	Activation of RNase L (RNase L)	HIV-1 production (HIV-1)
Nc1nc2ncc(CNc3ccc(C(=O)N[C@@H](CCC(=O)NCCCCCC(=O)O[C@@H]4C[C@@H](COP(=O)(O)O[C@@H]5C[C@@H](COP(=O)(O)O[C@@H]6C[C@@H](CO)O[C@H]6n6cnc7c(N)ncnc76)O[C@H]5n5cnc6c(N)ncnc65)O[C@H]4n4cnc5c(N)ncnc54)C(=O)O)cc3)nc2c(=O)[nH]1 [compound 26]	45	2.4 fold	–	–	–	–
Nc1ncnc2c1ncn2[C@@H]1O[C@H](CO)C[C@H]1O [Cordycepin]	–	1.5 fold	13	–	–	–
Nc1nc2ncc(CNc3ccc(C(=O)N[C@@H](CCC(=O)NCCCCCC(=O)OC[C@H]4O[C@@H](n5cnc6c(N)ncnc65)[C@H](OP(=O)(O)OC[C@@H]5C[C@@H](OP(=O)(O)OC[C@@H]6C[C@@H](O)[C@H](n7cnc8c(N)ncnc87)O6)[C@H](n6cnc7c(N)ncnc76)O5)[C@@H]4O)C(=O)O)cc3)nc2c(=O)[nH]1 [compound 33]	81	7.5 fold and 7.2 fold	–	35	–	–
(2′-5′)d^3′(A-A-A) [CCC]	96	4.8 fold	–	12	no activation	inhibits HIV-1 production
